Experimental data as given in ChEMBL document CHEMBL1649476, “In vitro chemosensitization of Plasmodium falciparum to antimalarials by verapamil and probenecid” (Antimicrob Agents Chemother, 2009).

What was measured:
Plasmodium falciparum [1] = assay: Antiplasmodial activity against Plasmodium falciparum 3D7 by [3H]hypoxanthine incorporation assay; format: functional, organism-based
Plasmodium falciparum [2] = assay: Antiplasmodial activity against multidrug-resistant Plasmodium falciparum VS/1 by [3H]hypoxanthine incorporation assay; format: functional, organism-based
Plasmodium falciparum [3] = assay: Selectivity ratio of IC50 for Plasmodium falciparum 3D7 to IC50 for multidrug-resistant Plasmodium falciparum VS/1; format: functional
Plasmodium falciparum [4] = assay: Chemosensitization of halofantrine against multidrug-resistant Plasmodium falciparum VS/1 by [3H]hypoxanthine incorporation assay; format: functional
Plasmodium falciparum [5] = assay: Chemosensitization of primaquine against multidrug-resistant Plasmodium falciparum VS/1 by [3H]hypoxanthine incorporation assay; format: functional
Plasmodium falciparum [6] = assay: Chemosensitization of methotrexate against multidrug-resistant Plasmodium falciparum VS/1 by [3H]hypoxanthine incorporation assay; format: functional
Plasmodium falciparum [7] = assay: Chemosensitization of desethylamodiaquin against multidrug-resistant Plasmodium falciparum VS/1 by [3H]hypoxanthine incorporation assay; format: functional
Plasmodium falciparum [8] = assay: Chemosensitization of lumefantrine against multidrug-resistant Plasmodium falciparum VS/1 by [3H]hypoxanthine incorporation assay; format: functional
Plasmodium falciparum [9] = assay: Chemosensitization of amodiaquin against multidrug-resistant Plasmodium falciparum VS/1 by [3H]hypoxanthine incorporation assay; format: functional
Plasmodium falciparum [10] = assay: Chemosensitization of piperaquine against multidrug-resistant Plasmodium falciparum VS/1 by [3H]hypoxanthine incorporation assay; format: functional
Plasmodium falciparum [11] = assay: Chemosensitization of quinine against multidrug-resistant Plasmodium falciparum VS/1 by [3H]hypoxanthine incorporation assay; format: functional
Plasmodium falciparum [12] = assay: Chemosensitization of benzonaphthyridine pyronaridine against multidrug-resistant Plasmodium falciparum VS/1 by [3H]hypoxanthine incorporation assay; format: functional
Plasmodium falciparum [13] = assay: Chemosensitization of pyrimethamine against multidrug-resistant Plasmodium falciparum VS/1 by [3H]hypoxanthine incorporation assay; format: functional
Plasmodium falciparum [14] = assay: Chemosensitization of chloroquine against multidrug-resistant Plasmodium falciparum VS/1 by [3H]hypoxanthine incorporation assay; format: functional
Plasmodium falciparum [15] = assay: Chemosensitization of chlorcycloguanil against multidrug-resistant Plasmodium falciparum VS/1 by [3H]hypoxanthine incorporation assay; format: functional
Plasmodium falciparum [16] = assay: Chemosensitization of mefloquine against multidrug-resistant Plasmodium falciparum VS/1 by [3H]hypoxanthine incorporation assay; format: functional
Plasmodium falciparum [17] = assay: Chemosensitization of sesquiterpene dihydroartemisinin pyronaridine against multidrug-resistant Plasmodium falciparum VS/1 by [3H]hypoxanthine incorporation assay; format: functional

In the case of COc1cc(NC(C)CCCN)c2ncccc2c1 (configuration not stated) [PRIMAQUINE], the IC50 (Plasmodium falciparum [1]) is reported as 0.326 µM, the IC50 (Plasmodium falciparum [2]) is reported as 0.326 µM and the “Ratio IC50” value (Plasmodium falciparum [3]) is reported as 5.
Work on Clc1ccc2c(N3CCN(CCCN4CCN(c5ccnc6cc(Cl)ccc56)CC4)CC3)ccnc2c1 [PIPERAQUINE] yielded an IC50 (Plasmodium falciparum [2]) of 0.088 µM.
Compound COc1ccc(CCN(C)CCCC(C#N)(c2ccc(OC)c(OC)c2)C(C)C)cc1OC (configuration not stated) [VERAPAMIL] has an FICI (Plasmodium falciparum [4]) of 1.1 nM, an FICI (Plasmodium falciparum [5]) of 0.71 nM and an FICI (Plasmodium falciparum [6]) of 1.33 nM. For the same compound, the FICI (Plasmodium falciparum [7]) was 0.47 nM, the FICI (Plasmodium falciparum [8]) was 0.55 nM and the FICI (Plasmodium falciparum [9]) was 1.4 nM. The FICI (Plasmodium falciparum [10]) was 1.13 nM, the FICI (Plasmodium falciparum [11]) was 0.39 nM and the FICI (Plasmodium falciparum [12]) was 1.07 nM. It also gave an FICI (Plasmodium falciparum [13]) of 1.07 nM, an FICI (Plasmodium falciparum [14]) of 0.52 nM and an FICI (Plasmodium falciparum [15]) of 1 nM. For the same compound, the FICI (Plasmodium falciparum [16]) was 1.12 nM and the FICI (Plasmodium falciparum [17]) was 1.07 nM.
In the case of CCc1nc(N)nc(N)c1-c1ccc(Cl)cc1 [PYRIMETHAMINE], the IC50 (Plasmodium falciparum [2]) is reported as 5 µM.
Work on CCNCc1cc(Nc2ccnc3cc(Cl)ccc23)ccc1O [DESETHYL AMODIAQUINE] yielded an IC50 (Plasmodium falciparum [2]) of 0.042 µM.
For C=C[C@H]1CN2CC[C@H]1C[C@H]2[C@H](O)c1ccnc2ccc(OC)cc12 [QUININE], the IC50 (Plasmodium falciparum [2]) was 0.133 µM.
CCCN(CCC)S(=O)(=O)c1ccc(C(=O)O)cc1 [PROBENECID] gave an FICI (Plasmodium falciparum [4]) of 0.57 nM, an FICI (Plasmodium falciparum [5]) of 0.83 nM and an FICI (Plasmodium falciparum [6]) of 1.02 nM. It also gave an FICI (Plasmodium falciparum [7]) of 1.12 nM, an FICI (Plasmodium falciparum [8]) of 1.21 nM and an FICI (Plasmodium falciparum [9]) of 1.57 nM. The FICI (Plasmodium falciparum [10]) was 0.12 nM, the FICI (Plasmodium falciparum [11]) was 1.2 nM and the FICI (Plasmodium falciparum [12]) was 5.9 nM. The FICI (Plasmodium falciparum [13]) was 0.2 nM, the FICI (Plasmodium falciparum [14]) was 0.78 nM and the FICI (Plasmodium falciparum [15]) was 0.64 nM. It also gave an FICI (Plasmodium falciparum [16]) of 0.78 nM and an FICI (Plasmodium falciparum [17]) of 1.12 nM.
For CN(Cc1cnc2nc(N)nc(N)c2n1)c1ccc(C(=O)N[C@@H](CCC(=O)O)C(=O)O)cc1 [METHOTREXATE], the IC50 (Plasmodium falciparum [2]) was 0.063 µM.
In the case of CCCCN(CCCC)CC(O)c1cc(Cl)cc2c1-c1ccc(Cl)cc1/C2=C/c1ccc(Cl)cc1 (configuration not stated) [LUMEFANTRINE], the IC50 (Plasmodium falciparum [1]) is reported as 1.69 µM, the IC50 (Plasmodium falciparum [2]) is reported as 0.053 µM and the “Ratio IC50” value (Plasmodium falciparum [3]) is reported as 2.
CCCCN(CCCC)CCC(O)c1cc2c(Cl)cc(Cl)cc2c2cc(C(F)(F)F)ccc12 (configuration not stated) [HALOFANTRINE] gave an IC50 (Plasmodium falciparum [2]) of 0.009 µM.
Compound CC1(C)N=C(N)N=C(N)N1c1ccc(Cl)c(Cl)c1 [CHLORCYCLOGUANIL] has an IC50 (Plasmodium falciparum [2]) of 0.079 µM.
Work on CCN(CC)Cc1cc(Nc2ccnc3cc(Cl)ccc23)ccc1O yielded an IC50 (Plasmodium falciparum [2]) of 0.008 µM.
